In US20260027131A1, “PRODRUGS, PRODRUG COMPOSITIONS AND RELATED METHODS” (Praesidia Biotherapeutics Inc., priority 2022, published 2026):
Where two headings read alike, the source gives them in different places.

Key:
Caco-2 cell monolayers = experiment: Permeability study using Caco-2 cell monolayers; settings: 2 hours; for Permeability A-B: apical to basolateral; for Permeability B-A: basolateral to apical
Method: (§2) CaCO-2 cells were cultured, and a monolayer was developed in-house in 96 well-plates over 18 days using standard protocol. The monolayer was tested for the integrity of the cell monolayer before using.
(§3) Test compounds were added to the transwell insert (apical compartment) to determine the rate of drug transport in the apical to basolateral direction. To determine the rate of drug transport in the basolateral to apical direction, the test compound was added to the receiver plate wells (basolateral compartment). Appropriate amount of HBSS (10 mM HEPES, pH 7.4) was added in both compartments for a final volume of 200 μL. The plates were incubated at 37° C. with shaking at 150 rpm on a rotary shaker for 2 hours. At the end of the transport period, 50 μL from the apical and basolateral wells were collected and 4 volume of cold acetonitrile containing internal standards (IS: 100 nM alprazolam, 200 nM labetalol, and 2 μM ketoprofen) was added to each sample to terminate the reaction. The samples were vortexed and centrifuged at 3,800 g for 20 minutes. An aliquot of 150 μL of the supernatant was used for LC/MS/MS analysis. All samples were analyzed in duplicates. Samples were analyzed through LC/MS/MS for estimating the permeability and efflux of the compounds across Caco-2 cell monolayers.

[1] = Permeability study using Caco-2 cell monolayers; settings: human, Caco-2, pH 7.4
Method: as §2, §3

Rat plasma stability = type: in vitro ADME; settings: for Rat plasma stability: Table 6, unit not given; for half-life at 5 μM: rat, plasma
Method: Rat and human plasma were obtained from qualified vendors. […] The assay was performed in duplicate.

[2] = Pharmacokinetic studies in rats: plasma and lung; settings: rat, single i.v., 2 mg/kg dexamethasone equivalent
Method: (§1) Six to eight weeks old Sprague-Dawley rats were procured from a qualified provider. Test compounds were introduced in rats by a single intravenous administration. […] Blood samples (0.1, 0.2 or 0.5 mL) were collected with a 1 mL syringe containing anticoagulants K2EDTA. Blood samples were centrifuged to obtain plasma for analysis. […] After collection at each time point, lung samples were frozen at −75° C. Prior to analysis, a portion of lung sample was weighed and homogenized with phosphate buffer saline. […] Data analysis and pharmacokinetic parameters were generated using WinNonlin software.

[3] = Metabolic stability in rat liver microsomes; type: in vitro ADME; settings: rat liver microsomes, 1 μM, NADPH; Table 6, unit not given
Method: Rat liver microsomes were obtained from qualified vendors and metabolic stability of the test compound was determined at 1 μM. The compound was incubated at 37° C. with 0.5 mg microsome/mL in the buffer in the presence of 1 mM NADPH. Aliquots of 50 μL were taken from the reaction solution at 0, 15, 30, 45 and 60 minutes. […] All samples were analyzed in duplicates.

[4] = Chemical stability at pH 4.5 and pH 7.4 in PBS; type: physicochemical; settings: for Chemical Stability, pH 4.5: PBS pH 4.5, 37° C.; for Chemical Stability, pH 4.5 / Chemical Stability, pH 7.4: 5 μM, up to 240 min; for Chemical Stability, pH 7.4: PBS pH 7.4, 37° C.; for Chemical stability: Table 6, pH not stated
Method: The assay was performed in duplicate. […] Samples were incubated at 37° C. at 600 rpm.

[5] = biological target: T1, Glucocorticoid receptor (GR) (Homo sapiens, UniProt P04150); experiment: TR-FRET GR competitive binding assay; settings: 0.1 μM
T1 sequence (P04150 1-777): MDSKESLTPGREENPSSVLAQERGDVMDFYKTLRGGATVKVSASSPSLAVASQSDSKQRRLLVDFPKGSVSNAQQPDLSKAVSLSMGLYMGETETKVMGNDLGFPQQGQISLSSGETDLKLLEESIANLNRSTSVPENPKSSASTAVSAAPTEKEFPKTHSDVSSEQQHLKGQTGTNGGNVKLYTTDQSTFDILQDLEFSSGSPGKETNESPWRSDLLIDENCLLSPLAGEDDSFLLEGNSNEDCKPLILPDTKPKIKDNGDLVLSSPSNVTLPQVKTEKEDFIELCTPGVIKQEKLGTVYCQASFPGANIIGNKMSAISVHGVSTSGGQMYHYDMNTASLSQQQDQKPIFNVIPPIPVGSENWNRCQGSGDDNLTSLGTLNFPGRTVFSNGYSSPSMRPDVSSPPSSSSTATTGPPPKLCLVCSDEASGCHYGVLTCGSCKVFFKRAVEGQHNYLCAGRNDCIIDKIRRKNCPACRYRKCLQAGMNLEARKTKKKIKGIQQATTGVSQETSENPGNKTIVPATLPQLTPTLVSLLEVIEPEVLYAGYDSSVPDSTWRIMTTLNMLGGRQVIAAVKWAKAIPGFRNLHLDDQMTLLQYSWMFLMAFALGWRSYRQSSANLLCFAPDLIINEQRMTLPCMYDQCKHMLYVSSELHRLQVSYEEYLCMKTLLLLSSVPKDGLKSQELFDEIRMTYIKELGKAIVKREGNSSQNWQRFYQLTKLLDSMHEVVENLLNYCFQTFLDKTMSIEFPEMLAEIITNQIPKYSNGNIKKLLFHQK
Method: Glucocorticoid receptor (GR) binding of prodrugs was determined using TR-FRET GR competitive binding assay. Three-point (0.1, 1 and 10 μM) binding was evaluated for each prodrug.

in vitro = settings: human, plasma
Method: (§4) Rat and human plasma were obtained from qualified vendors. 5 μL of 500 μM of the test article solution was added to 495 μL of pre-incubated human or rat plasma to reach a final concentration of 5 μM. The final concentration of organic solvents was not more than 0.5%. The assay was performed in duplicate. The reaction samples were incubated in a 37° C. water bath with shaking at approximately 60 rpm. 50 μL of the reaction samples were collected at 0, 30, 60, 120 and 180 minutes. The reaction was stopped by adding 300 μL of room temperature quench solution (acetonitrile containing internal standards (IS, 200 nM labetalol, 100 nM alprazolam and 2 μM ketoprofen)). The samples were vortexed for 5 minutes followed by centrifugation of the samples at 3,220 g for 30 minutes at room temperature to precipitate the protein. 100 μL of the supernatant was transferred to a new plate and diluted with 100 μL or 200 μL water according to the LC/MS signal response and peak shape. The samples were mixed well and analyzed using LC/MS/MS. The remaining percentage of parent drug versus reaction time was used to calculate the t1/2 value.

[6] = Sprague-Dawley, rat, in vivo, iv, 2 mg/kg
Method: as §1, with “1 ml” for “1 mL”, “of brain” for “of lung”

Method for Human plasma stability: as §4

Compound | Permeability A-B (Caco-2 cell monolayers) | Permeability B-A (Caco-2 cell monolayers) | efflux ratio at 2 h [1] | Rat plasma stability (Rat plasma stability) | Conc in Prodrug in lung ([2]; 15 min) | Conc of Prodrug in plasma ([2]; 15 min) | Conc in Prodrug in lung ([2]; 60 min) | Conc of Prodrug in plasma ([2]; 60 min) | Conc in Prodrug in lung ([2]; 360 min) | Conc of Prodrug in plasma ([2]; 360 min) | RLM [3] | half-life at 5 μM (Human plasma stability) | Chemical Stability, pH 4.5 [4] | Chemical Stability, pH 7.4 [4] | Chemical stability [4] | also measured
COc1cccc(NC(=O)[C@@H](N)C(C)C)c1C(=O)OCC(=O)[C@@]1(O)[C@H](C)CC2[C@@H]3CCC4=CC(=O)C=C[C@]4(C)[C@@]3(F)[C@@H](O)C[C@@]21C.Cl (stereo partly drawn) [Compound 9] | A-B = 0.025 × 10^−6, cm/s | B-A = 7 × 10^−6, cm/s | 279 | >240 | 992 ± 422 | 694 ± 83 | 959 ± 283 | 244 ± 13 | 433 ± 212 | 21 ± 1.5 | 24 | > 4 h | Yes | Yes | Yes | –
CC(C)[C@H](N)C(=O)Nc1ccccc1C1(C(=O)OCC(=O)[C@@]2(O)[C@H](C)C[C@H]3[C@@H]4CCC5=CC(=O)C=C[C@]5(C)[C@@]4(F)[C@@H](O)C[C@@]32C)CC1.Cl [Compound 25] | A-B = 0.065 × 10^−6, cm/s | B-A = 11 × 10^−6, cm/s | 170 | >240 | 3895 ± 368 | 742 ± 96 | 5827 ± 1483 | 367 ± 55 | 1425 ± 509 | 34 ± 10 | 38 | > 4 h | Yes | Yes | Yes | half-life at 5 μM (Rat plasma stability; read-out: Rat Plasma Stability t½): > 4 h; GR Binding Data [5]: 19%
CC(C)C(C(=O)N1CCCC1C(=O)N(C)CC(C)(C)C(C)C(=O)OCC(=O)[C@@]1(O)[C@H](C)C[C@H]2[C@@H]3CCC4=CC(=O)C=C[C@]4(C)[C@@]3(F)[C@@H](O)C[C@@]21C)N(C)C (stereo partly drawn) [Compound 33] | – | – | – | – | – | – | – | – | – | – | – | – | – | – | – | half-life at 5 μM (in vitro): > 4 h; half-life at 5 μM (Rat plasma stability): > 4 h; Conc of Dex in plasma [6]: 18.8 ± 7.75; Conc of Prodrug in plasma [6]: 6549 ± 1537
